Data taken from patent US7919577B2, “Adrenocorticotropic hormone analogs and related methods” (Colorado Seminary, priority 2004, dated 2011).
No end group written: not given here.

Columns and labels:
[1] = tested on: explanted mouse adrenal membrane (adrenal halves); experiment: in vitro Serum-free Adrenal Inhibition Assay (Example 4); type: cell-based; conditions: FIG. 4
Protocol: A series of separate in vitro Serum-Free Adrenal Corticosteroid Inhibition Assay were performed to identify ACTH analogs that inhibit ACTH-induced adrenal hormone production in vitro. The concentration of corticosterone was measured according to the procedure of Example 4 in a serum-free culture medium containing explanted adrenal membrane and unmodified ACTH, AT814 ACTH analog (SEQ ID NO:20), or a combination of ACTH and AT814 at 100 ng/mL each. […] Corticosterone levels were taken at 2.0 hours after the adrenal membrane was placed in the serum free M199 medium, and each corticosterone level in Table 5 is an average of five samples.
The in vitro Serum-free Adrenal Inhibition Assay was performed according the following method. First, adrenals were removed from mice, dissected free of fat, and cut in half. See Costa, J L, et al., “Mutational analysis of evolutionarily conserved ACTH residues,” Gen Comp Endocrinol. 136:12-16 (2004); and Weber, M M, et al., “Postnatal overexpression of insulin-like growth factor II in transgenic mice is associated with adrenocortical hyperplasia and enhanced steroidogenesis,” Endocrinology 140:1537-1543 (1999), incorporated herein by reference.
Second, each adrenal half was placed into an individual well of a 4-well dish, one dish per mouse. Adrenal halves were incubated at 5% CO2, 37° C., in 0.5 ml serum-free medium (M199; Invitrogen) for 30 minutes to equilibrate.
Third, medium was removed and replaced by 0.5 ml M199 containing ACTH, AT814, or both, at 100 ng/ml each; controls had no peptides added.
Fourth, after 2 hours of incubation, the medium was removed, pooled for all four halves from each mouse, and assayed by corticosterone using standard RIA methods. corticosterone was determined by competitive radioimmunoassay (^125I RIA kit; ICN, Costa Mesa, Calif.) according to the manufacturer's recommendations. One microliter of serum was used per assay sample. Samples were run in duplicates.

[2] = tested on: dexamethasone-suppressed male FVB/N mice; experiment: in vivo Serum Corticosteroid Inhibition Assay (Example 2); set-up: species or system mouse; conditions: for serum corticosterone at 180 minutes: blood one hour later; for reduction in serum corticosterone levels: ACTH alone normalized to 100%, FIG. 2; for corticosterone induction as percent of that of wildtype ACTH: 1 hour after last peptide injection
Protocol: The in vivo Serum Corticosteroid Inhibition Assay can include sequential administration of the test compound and the corticosteroid-producing compound by the following steps: first, an agent to suppress endogenous ACTH production was administered to a mouse subject, such as an intraperitoneal injection of dexamethasone; second, after waiting a suitable period of time for suppression of endogenous ACTH production (e.g., 1.5-2.0 hours), a test compound was administered to the mouse by a suitable method, such as intraperitoneal injection; third, after waiting a suitable period of time (e.g., 1 hour) for action of the test compound, a compound with corticosteroid-producing activity can be administered to the mouse by a suitable method, such as intraperitoneal injection; and fourth, after waiting a suitable period of time for the biological activity of both administered compounds to occur (e.g., 1 hour), a blood sample was taken from the subject and the level of serum corticosterone was determined by a suitable method, such as a competitive radioimmunoassay using ^125I RIA kit (ICN, Costa Mesa, Calif.). Optionally, steps two and three can be reversed (administering the corticosteroid-producing compound first, followed by administration of the test compound). The in vivo Serum Corticosteroid Inhibition Assay can also include co-administration of the test compound and the corticosteroid-producing compound by the following steps: first, an agent to suppress endogenous ACTH production was administered to a mouse subject, such as an intraperitoneal injection of dexamethasone; second, after waiting a suitable period of time for suppression of endogenous ACTH production (e.g., 1.5-2.0 hours), the corticosteroid-producing compound and a test compound were co-administered to the mouse by a suitable method, such as intraperitoneal injection; and third, after waiting a suitable period of time for the biological activity of both administered compounds to occur (e.g., 1 hour), a blood sample was taken from the subject and the level of serum corticosterone was determined by a suitable method, such as a competitive radioimmunoassay using ^125I RIA kit (ICN, Costa Mesa, Calif.). Also, in some embodiments, the first step in any in vivo Serum Corticosteroid Inhibition Assay can be replaced by a measurement of the initial endogenous corticosteroid or corticosteroid level in the blood of the subject in the manner of step four, instead of administering the agent to suppress ACTH production. Example 2 describes murine in vivo Serum Corticosteroid Inhibition Assays in detail.
A series of separate in vivo Serum Corticosteroid Inhibition Assays were performed to identify ACTH analogs that inhibit ACTH adrenal hormone production in vivo. The serum corticosterone levels of dexamethasone-suppressed mice were measured as described in Example 2 after administration of (1) ACTH (corticosteroid-producing compound), (2) an ACTH analog (test compound) followed by subsequent administration of ACTH, (3) a combination of ACTH and the ACTH analog and (4) the ACTH analog alone.
The in vivo Serum Corticosteroid Inhibition Assay was performed according the following method. The ACTH analog test compounds, such as those showing low activities in Example 1, were tested for their abilities to inhibit adrenal hormone production induced by unmodified ACTH.
First, two to three month-old male FVB/N mice from our colony, five per group, were injected intraperitoneally with dexamethasone (0.4 mg/0.1 ml PBS per mouse; Sigma, St. Louis, Mo.) to suppress their endogenous ACTH production.
Second, ninety to one hundred twenty minutes later, animals were injected subcutaneously between the shoulder blades with wild type ACTH and/or test ACTH analog peptides (1 μg/0.1 mL PBS/0.5% BSA) or with vehicle alone (0.1 mL PBS/0.5% BSA). […]

## N-Ser^1-Tyr-Ser-Met-Glu^5-His-Phe-Arg-Trp-Gly^10-Lys-Pro-Val-Gly-Lys^15-Arg-Ala-Ala-Trp-Val^20-Lys-Val-Tyr-Pro-Ac (SYSMEHFRWGKPVGKRAAWVKVYP; not fully specified; printed as N-Ser1-Tyr-Ser-Met-Glu5-His-Phe-Arg-Trp-Gly10-Lys-Pro-Val-Gly-Lys15-Arg-Ala-Ala-Trp-Val20-Lys-Val-Tyr-Pro-Ac) [AT814]
[1]; AT814 alone in M199 serum-free medium
  corticosterone induction by analog alone: only a negligible amount of corticosterone induction
[1]; equal amounts of AT814 and unmodified ACTH
  reduction of corticosterone induction compared to unmodified ACTH alone: about 65%
[2]; ACTH analog alone 120 minutes after dexamethasone (AT), listed as (KKRRP15-19KRAAW) mACTH(1-24)
  serum corticosterone at 180 minutes: about 7±7 ng/mL
[2]; ACTH analog alone 120 minutes after dexamethasone (AT), listed as (KKRRP15-19KRAAW)mACTH(1-24)
  serum corticosterone at 180 minutes: 7 ± 7 ng/mL
[2]; ACTH analog at 90 minutes, mACTH(1-24) at 120 minutes after dexamethasone (AT90-ACTH120), listed as (KKRRP15-19KRAAW) mACTH(1-24)
  serum corticosterone at 180 minutes: 175 ± 27 ng/mL
[2]; ACTH analog at 90 minutes, mACTH(1-24) at 120 minutes after dexamethasone (AT90-ACTH120), listed as (KKRRP15-19KRAWW)mACTH(1-24)
  serum corticosterone at 180 minutes: 175 ± 27 ng/mL
[2]; ACTH analog together with mACTH(1-24) at 120 minutes after dexamethasone ((AT + ACTH)120)
  serum corticosterone at 180 minutes: 51 ± 8 ng/mL
[2]; ACTH analog together with mACTH(1-24) at 120 minutes after dexamethasone ((AT + ACTH)120), listed as (KKRRP15-19KRAAW)mACTH(1-24)
  serum corticosterone at 180 minutes: 51 ± 8 ng/mL
[2]; analog 30 minutes before ACTH
  reduction in serum corticosterone levels: ~65%
[2]; analog concurrently with ACTH
  reduction in serum corticosterone levels: ~90%
[2]; applied 30 minutes before the ACTH injection
  corticosterone induction as percent of that of wildtype ACTH: 35%
[2]; applied at the same time as the ACTH injection
  corticosterone induction as percent of that of wildtype ACTH: 10%
